{"source": "patent US11883526B2", "about": "(priority 2019, dated 2024)", "key": {"[1]": {"system": "MDD/TRD subjects", "conditions": "quetiapine 52-week safety study; Symbyax over 76 weeks; cited from earlier work"}, "[2]": {"system": "female Sprague-Dawley rats", "assay": "Single dose neurotoxicity study: mortality, clinical observations, body weight", "assay_type": "in vivo, rat", "description": "The injection volume was 5 mL/kg.\nBody weight and body weight gain were measured daily."}, "[3]": {"description": "This example provides an LC-MS/MS method for the determination of ketamine and norketamine in sodium heparin human plasma using ketamine-d4 and norketamine-d4 as the respective internal standards (IS)."}, "[4]": {"assay": "Pharmacokinetics of intranasal esketamine in healthy subjects (Example 9)", "conditions": "for AUClast / AUC∞ / t1/2 / Cmax / Metabolite/Parent Ratio AUClast / Metabolite/Parent Ratio Cmax / Metabolite/Parent Ratio AUC∞: mean; for tmax: median; for Metabolite/Parent Ratio AUClast / Metabolite/Parent Ratio Cmax / Metabolite/Parent Ratio AUC∞: noresketamine/esketamine", "description": "This was an open-label, single-center study. The subjects were healthy Caucasian men and women, 20 to 55 years of age, inclusive. […] The solution consisted of:\nBlood samples (4 mL each) for determination of esketamine and noresketamine plasma concentrations were collected into the appropriate collection tube (e.g., Vacutainer®) at timepoints 0.00, 0.12, 0.20, 0.37, 0.53, 0.67, 0.83, 1.00, 1.25, 1.50, 2.00, 3.00, 4.00, 6.00, 9.00, 12.00, 18.00, and 24.00 h. The total amount of blood to be drawn for clinical laboratory tests and PK evaluations is approximately 327 mL.\nPlasma samples were analyzed for esketamine and noresketamine concentrations using the validated, specific and sensitive liquid chromatography coupled to tandem mass spectrometry (LC-MS/MS) achiral method of Example 8.\nSerial PK blood samples (4 mL each) were collected for a 24-hour period from each subject (Periods 1, 2, and 3). […] Statistical Methods 1.6.4.1. Sample Size\nThe following key parameters of esketamine and noresketamine in plasma were calculated using noncompartmental methods and actual sampling times: Cmax, tmax, AUClast, AUC∞, t1/2,λ, and λz."}, "[5]": {"conditions": "single dose study, (+)MK-801 maleate 1 mg/kg subcutaneous"}, "[6]": {"conditions": "noresketamine after esketamine 28 mg"}, "[7]": {"conditions": "noresketamine after esketamine 56 mg"}, "[8]": {"conditions": "noresketamine after esketamine 56 mg, n = 13"}, "[9]": {"conditions": "noresketamine after esketamine 84 mg"}, "[10]": {"conditions": "noresketamine after esketamine 84 mg, n = 12"}}, "note": "Where two headings read alike, the source gives them in different places. Marks after values point to notes of the source that are not given here.", "data": [{"compound": "OCCOCCN1CCN(C2=Nc3ccccc3Sc3ccccc32)CC1", "note": "[quetiapine]", "values": [{"measurement": "rate of discontinuation due to adverse events in long-term study in MDD/TRD subjects", "setting": "[1]", "value": 23.7, "unit": "%"}]}, {"compound": "(+)MK-801 maleate [reference compound]", "values": [{"measurement": "body weight loss", "setting": "[2]; 1 mg/kg sc, first 48 hours after treatment", "value": "13-14%"}, {"measurement": "mortality", "setting": "[2]; single sc dose 1 mg/kg, single and repeated dose studies", "value": "No mortality"}]}, {"compound": "NC1(c2ccccc2Cl)CCCCC1=O", "note": "(centres unmarked) [Norketamine]", "values": [{"measurement": "QC sample freeze/thaw stability", "setting": "[3]; freeze (−20° C.)/thaw (ice-water bath)", "value": "3 freeze (−20° C.)/thaw (ice-water bath) cycles"}, {"measurement": "QC sample freeze/thaw stability", "setting": "[3]; freeze (−20° C.)/thaw (room temperature)", "value": "3 freeze (−20° C.)/thaw (room temperature) cycles"}, {"measurement": "QC sample long-term storage stability", "setting": "[3]; human plasma QC sample at −20° C.", "value": 1552, "unit": "days at −20 °C"}, {"measurement": "QC sample bench-top stability", "setting": "[3]; human plasma QC sample, room temperature", "value": 68.5, "unit": "hours at room temp"}, {"measurement": "Stock solution stability (spike solutions)", "setting": "[3]; ketamine/norketamine spike solutions at −20° C.", "value": "610 days at −20 °C for ketamine/norketamine spike solutions"}, {"measurement": "Processed sample stability", "setting": "[3]; room temperature", "value": 146.5, "unit": "hours at room temperature"}, {"measurement": "Whole Blood Stability", "setting": "[3]; room temperature and ice-water bath (0-4° C.)", "value": "120 minutes at room temperature and in an ice-water bath (0-4° C.)"}, {"measurement": "Stock solution stability", "setting": "[3]; stock solutions at room temperature under white light", "value": 6, "unit": "h"}, {"measurement": "Stock solution stability", "setting": "[3]; stock solutions at −20° C.", "value": 15100, "unit": "h"}]}, {"compound": "C[C@]12N[C@H](Cc3ccccc31)c1ccccc12.O=C(O)/C=C\\C(=O)O", "note": "[Positive control]", "values": [{"measurement": "Clinical observation incidence: Ataxia", "setting": "[2]; [5]", "value": "27/30 ***"}, {"measurement": "Clinical observation incidence: Catalepsy", "setting": "[2]; [5]", "value": "15/30 ***"}, {"measurement": "Clinical observation incidence: Chromodacryorrhea", "setting": "[2]; [5]", "value": "24/30 ***"}, {"measurement": "Clinical observation incidence: Decreased general activity", "setting": "[2]; [5]", "value": "30/30 ***"}, {"measurement": "Clinical observation incidence: Decubitus", "setting": "[2]; [5]", "value": "30/30 ***"}, {"measurement": "Clinical observation incidence: Increased general activity", "setting": "[2]; [5]", "value": "4/30"}, {"measurement": "Clinical observation incidence: Narrowed palpebral fissure", "setting": "[2]; [5]", "value": "4/30"}, {"measurement": "Clinical observation incidence: Piloerection", "setting": "[2]; [5]", "value": "8/30**"}, {"measurement": "Clinical observation incidence: Salivation (out of normal)", "setting": "[2]; [5]", "value": "17/30 ***"}, {"measurement": "Clinical observation incidence: bradypnoea", "setting": "[2]; [5]", "value": "12/30 ***"}]}, {"compound": "N[C@]1(c2ccccc2Cl)CCCCC1=O", "note": "[noresketamine]", "values": [{"measurement": "mean ratio of noresketamine to esketamine, AUClast", "setting": "[4]; across 28, 56 and 84 mg", "value": "3.62 to 4.32"}, {"measurement": "mean ratio of noresketamine to esketamine, AUC∞", "setting": "[4]; across 28, 56 and 84 mg", "value": "3.80 to 4.46"}, {"measurement": "mean ratio of noresketamine to esketamine, Cmax", "setting": "[4]; across 28, 56 and 84 mg", "value": "1.96 to 2.55"}, {"measurement": "mean t1/2", "setting": "[4]; across 28, 56 and 84 mg", "value": "7.48 to 7.74", "unit": "h"}, {"measurement": "variability of AUC (AUClast and AUC∞)", "setting": "[4]; across the 3 treatment groups", "value": "17.0% to 21.3"}, {"measurement": "variability of Cmax (percent coefficient of variation)", "setting": "[4]; across the 3 treatment groups", "value": "25.8% to 33.7"}, {"measurement": "median tmax", "setting": "[4]; healthy subjects, across 28, 56 and 84 mg intranasal regimens", "value": "1.25 to 1.5", "unit": "h"}, {"measurement": "AUClast", "setting": "[4]; [6]", "value": 454, "unit": "ng·h/mL"}, {"measurement": "AUC∞", "setting": "[4]; [6]", "value": 508, "unit": "ng·h/mL"}, {"measurement": "t1/2", "setting": "[4]; [6]", "value": 7.74, "unit": "h"}, {"measurement": "tmax", "setting": "[4]; [6]", "value": 1.25, "unit": "h"}, {"measurement": "AUClast", "setting": "[4]; [7]", "value": 851, "unit": "ng·h/mL"}, {"measurement": "AUC∞", "setting": "[4]; [8]", "value": "924^c h*ng/mL"}, {"measurement": "t1/2", "setting": "[4]; [8]", "value": "7.71^c h"}, {"measurement": "tmax", "setting": "[4]; [7]", "value": 1.50, "unit": "h"}, {"measurement": "AUClast", "setting": "[4]; [9]", "value": 1287, "unit": "ng·h/mL"}, {"measurement": "AUC∞", "setting": "[4]; [10]", "value": "1392^b h*ng/mL"}, {"measurement": "t1/2", "setting": "[4]; [10]", "value": "7.48^b h"}, {"measurement": "tmax", "setting": "[4]; [9]", "value": 1.50, "unit": "h"}, {"measurement": "Cmax", "setting": "[4]; noresketamine in plasma after intranasal esketamine 28 mg (Treatment A)", "value": 92.8, "unit": "ng/mL"}, {"measurement": "Cmax", "setting": "[4]; noresketamine in plasma after intranasal esketamine 56 mg (Treatment B)", "value": 154, "unit": "ng/mL"}, {"measurement": "Cmax", "setting": "[4]; noresketamine in plasma after intranasal esketamine 84 mg (Treatment C)", "value": 241, "unit": "ng/mL"}, {"measurement": "Metabolite/Parent Ratio AUClast", "setting": "[4]; esketamine 28 mg", "value": 3.62}, {"measurement": "Metabolite/Parent Ratio Cmax", "setting": "[4]; esketamine 28 mg", "value": 1.96}, {"measurement": "Metabolite/Parent Ratio AUC∞", "setting": "[4]; esketamine 28 mg, n = 12", "value": "3.80^b"}, {"measurement": "Metabolite/Parent Ratio AUClast", "setting": "[4]; esketamine 56 mg", "value": 4.07}, {"measurement": "Metabolite/Parent Ratio Cmax", "setting": "[4]; esketamine 56 mg", "value": 2.28}, {"measurement": "Metabolite/Parent Ratio AUC∞", "setting": "[4]; esketamine 56 mg, n = 12", "value": "4.22^b"}, {"measurement": "Metabolite/Parent Ratio AUClast", "setting": "[4]; esketamine 84 mg", "value": 4.32}, {"measurement": "Metabolite/Parent Ratio Cmax", "setting": "[4]; esketamine 84 mg", "value": 2.55}, {"measurement": "Metabolite/Parent Ratio AUC∞", "setting": "[4]; esketamine 84 mg, n = 11", "value": "4.46^d"}]}]}
